Experimental data from publication PMC10339456, “Exploring the 5-Substituted 2-Aminobenzothiazole-Based DNA Gyrase B Inhibitors Active against ESKAPE Pathogens” (ACS Omega, 2023).
Read-outs that look alike come from different tables or passages of the source.

Columns and labels:
[1] = target: T1, human topoisomerase IIα (Homo sapiens, UniProt P11388); experiment: Human topoisomerase IIα relaxation assay (selectivity); assay type: biochemical; details: read-out: enzyme residual activity human topoisomerase IIα
T1 construct: purchased Inspiralis Limited, Norwich, UK
T1 sequence (P11388 whole entry): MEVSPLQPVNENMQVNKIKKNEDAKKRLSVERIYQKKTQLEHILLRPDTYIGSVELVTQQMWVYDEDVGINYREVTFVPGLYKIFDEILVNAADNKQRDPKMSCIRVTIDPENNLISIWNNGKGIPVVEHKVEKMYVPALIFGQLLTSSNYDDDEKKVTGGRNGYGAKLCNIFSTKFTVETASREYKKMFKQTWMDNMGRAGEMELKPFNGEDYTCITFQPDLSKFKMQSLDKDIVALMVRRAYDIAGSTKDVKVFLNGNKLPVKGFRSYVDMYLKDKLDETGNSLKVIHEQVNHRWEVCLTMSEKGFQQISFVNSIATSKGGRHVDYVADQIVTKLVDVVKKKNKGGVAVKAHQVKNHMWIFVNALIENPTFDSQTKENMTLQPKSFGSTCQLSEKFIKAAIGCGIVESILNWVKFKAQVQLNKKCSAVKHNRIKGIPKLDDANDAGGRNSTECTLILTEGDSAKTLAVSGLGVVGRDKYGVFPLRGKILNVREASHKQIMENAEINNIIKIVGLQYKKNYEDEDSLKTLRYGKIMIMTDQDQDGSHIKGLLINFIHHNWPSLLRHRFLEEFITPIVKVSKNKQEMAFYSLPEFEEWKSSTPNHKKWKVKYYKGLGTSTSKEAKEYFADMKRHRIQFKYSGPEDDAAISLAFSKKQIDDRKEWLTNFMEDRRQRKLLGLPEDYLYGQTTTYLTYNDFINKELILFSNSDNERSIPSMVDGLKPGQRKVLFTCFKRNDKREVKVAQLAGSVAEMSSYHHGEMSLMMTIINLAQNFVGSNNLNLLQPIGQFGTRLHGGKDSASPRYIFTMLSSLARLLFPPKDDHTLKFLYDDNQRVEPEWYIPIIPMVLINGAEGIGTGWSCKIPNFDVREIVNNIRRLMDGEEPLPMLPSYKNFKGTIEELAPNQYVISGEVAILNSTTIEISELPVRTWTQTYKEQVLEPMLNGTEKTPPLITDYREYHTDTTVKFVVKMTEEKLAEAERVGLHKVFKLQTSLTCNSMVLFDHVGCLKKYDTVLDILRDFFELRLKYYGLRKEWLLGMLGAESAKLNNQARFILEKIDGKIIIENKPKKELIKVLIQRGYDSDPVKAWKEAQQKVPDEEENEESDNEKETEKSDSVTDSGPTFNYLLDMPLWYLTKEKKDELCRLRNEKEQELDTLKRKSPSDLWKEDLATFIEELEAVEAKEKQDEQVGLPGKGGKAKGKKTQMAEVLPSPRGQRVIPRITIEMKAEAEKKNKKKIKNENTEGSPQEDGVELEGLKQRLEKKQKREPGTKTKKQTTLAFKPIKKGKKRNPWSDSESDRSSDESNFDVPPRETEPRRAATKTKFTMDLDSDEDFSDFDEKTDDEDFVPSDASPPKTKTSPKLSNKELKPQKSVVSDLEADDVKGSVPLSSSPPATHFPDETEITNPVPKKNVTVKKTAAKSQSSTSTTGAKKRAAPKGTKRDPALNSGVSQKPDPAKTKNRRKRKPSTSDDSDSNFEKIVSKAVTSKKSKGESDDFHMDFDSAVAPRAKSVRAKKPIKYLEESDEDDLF
Method: (§1) To evaluate selectivity against a related human target, compounds D and E were tested for their inhibitory activity on human topoisomerase IIα.
(§2) Commercially available assay kits (Inspiralis Limited, Norwich, UK) were used for the determination of IC50 values for test compounds for inhibition of DNA gyrase supercoiling and Topo IV and TopoIIα relaxation. Assays were performed according to previously reported procedures.[25] For details on enzyme assays, see the Supporting Information.

[2] = test system: Gram-positives S. aureus, MRSA, VISA, and E. faecium; experiment: MIC, summary over Gram-positive strains; assay type: cell-based; details: most strains
Method: as §1
(§3) Antimicrobial assays (MICs) were performed by a standard serial broth microdilution method. For details on antimicrobial assays, see the Supporting Information.

[3] = test system: Gram-negative strains; experiment: MIC, summary in text over Gram-negative strains; assay type: cell-based; details: for MIC range against Gram-negative strains: E. coli, A. baumannii, P. aeruginosa, and K. pneumoniae; for MIC: read-out: MIC against Gram-negative strains (no activity)
Method: as §1, §3

[4] = test system: E. faecium ATCC700221; experiment: MIC, broth microdilution (CLSI); assay type: cell-based; details: Enterococcus faecium
Method: as §3

[5] = test system: S. aureus ATCC29213; experiment: MIC, broth microdilution (CLSI); assay type: cell-based; details: Staphylococcus aureus
Method: as §3

[6] = test system: K. pneumoniae ATCC10031; experiment: MIC, broth microdilution (CLSI); assay type: cell-based; details: Klebsiella pneumoniae
Method: as §3

[7] = test system: S. aureus (VISA) ATCC700699; experiment: MIC, broth microdilution (CLSI); assay type: cell-based; details: Staphylococcus aureus
Method: as §3

[8] = test system: A. baumannii ATCC17978; experiment: MIC, broth microdilution (CLSI); assay type: cell-based; details: Acinetobacter baumannii
Method: as §3

[9] = test system: Enterobacter cloacae ATCC13047; experiment: MIC, broth microdilution (CLSI); assay type: cell-based
Method: as §3

[10] = test system: P. aeruginosa ATCC27853; experiment: MIC, broth microdilution (CLSI); assay type: cell-based; details: Pseudomonas aeruginosa
Method: as §3

[11] = test system: E. coli ATCC25922; experiment: MIC, broth microdilution (CLSI); assay type: cell-based; details: Escherichia coli
Method: as §3

[12] = test system: S. aureus (MRSA) ATCC43300; experiment: MIC, broth microdilution (CLSI); assay type: cell-based; details: Staphylococcus aureus
Method: as §3

[13] = target: T2, E. coli Topo IV (Escherichia coli, UniProt P20083); experiment: Topo IV relaxation assay (Inspiralis kit); assay type: biochemical
T2 construct: purchased Inspiralis Limited, Norwich, UK
T2 sequence (P20083 whole entry): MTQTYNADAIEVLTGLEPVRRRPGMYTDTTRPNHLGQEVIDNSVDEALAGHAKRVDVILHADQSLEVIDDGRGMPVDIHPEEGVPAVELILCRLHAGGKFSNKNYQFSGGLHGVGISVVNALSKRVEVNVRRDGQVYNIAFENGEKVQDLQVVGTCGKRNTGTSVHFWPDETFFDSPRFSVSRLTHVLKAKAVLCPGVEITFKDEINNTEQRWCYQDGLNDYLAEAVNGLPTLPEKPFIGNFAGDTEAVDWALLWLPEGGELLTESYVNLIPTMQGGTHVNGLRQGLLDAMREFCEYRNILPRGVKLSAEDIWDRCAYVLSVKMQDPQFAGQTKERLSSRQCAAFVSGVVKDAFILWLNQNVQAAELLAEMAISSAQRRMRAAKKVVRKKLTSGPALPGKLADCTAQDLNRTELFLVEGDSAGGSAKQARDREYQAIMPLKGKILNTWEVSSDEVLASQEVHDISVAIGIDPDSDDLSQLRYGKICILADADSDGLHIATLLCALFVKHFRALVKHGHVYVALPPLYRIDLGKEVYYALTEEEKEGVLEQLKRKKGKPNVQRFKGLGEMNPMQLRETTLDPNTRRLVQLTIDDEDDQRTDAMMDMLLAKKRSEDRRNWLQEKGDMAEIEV
T2 sequence (P0AFI2 whole entry, further chain): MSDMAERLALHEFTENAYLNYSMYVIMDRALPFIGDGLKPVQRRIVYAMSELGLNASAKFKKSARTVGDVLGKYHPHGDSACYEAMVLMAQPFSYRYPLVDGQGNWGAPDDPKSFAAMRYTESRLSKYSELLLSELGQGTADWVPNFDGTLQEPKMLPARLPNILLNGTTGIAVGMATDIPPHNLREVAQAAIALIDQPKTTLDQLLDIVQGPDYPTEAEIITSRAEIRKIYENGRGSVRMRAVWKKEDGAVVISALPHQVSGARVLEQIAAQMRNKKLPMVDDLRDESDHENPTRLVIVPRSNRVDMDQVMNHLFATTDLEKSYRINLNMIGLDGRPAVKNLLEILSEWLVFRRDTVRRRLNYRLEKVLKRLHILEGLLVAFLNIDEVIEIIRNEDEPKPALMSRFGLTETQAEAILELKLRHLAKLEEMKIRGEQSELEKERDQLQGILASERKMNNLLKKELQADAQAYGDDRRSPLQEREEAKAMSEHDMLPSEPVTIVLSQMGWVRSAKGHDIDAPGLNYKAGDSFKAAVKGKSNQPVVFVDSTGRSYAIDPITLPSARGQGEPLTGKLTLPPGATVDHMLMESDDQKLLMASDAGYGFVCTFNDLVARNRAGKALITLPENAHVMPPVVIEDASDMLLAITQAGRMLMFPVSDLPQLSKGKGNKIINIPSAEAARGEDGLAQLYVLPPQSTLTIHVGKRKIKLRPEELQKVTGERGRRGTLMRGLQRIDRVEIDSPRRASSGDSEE
Method: (§4) Compounds B, C, D, and E were evaluated against DNA gyrase from E. coli supercoiling and against Topo IV in relaxation assay. The results are presented in Table 1 and Figure S5 as concentrations of compounds that inhibit the enzyme activity by 50% (IC50 values). […] Compounds B, C, D, and E were tested for antibacterial activity against Gram-positive and Gram-negative bacteria, including ESKAPE pathogens.
as §2

[14] = target: T3, E. coli gyrase (Escherichia coli, UniProt P0AES6); experiment: DNA gyrase supercoiling assay (Inspiralis kit); assay type: biochemical; details: mean ± SD of three independent experiments
T3 construct: purchased Inspiralis Limited, Norwich, UK
Method: as §4, §2

[15] = test system: K. pneumoniae ATCC10031; design: method as in PMID 33524686; details: cited from earlier work
[16] = target: T2, E. coli Topo IV; design: method as in PMID 33524686; details: relaxation; compound previously prepared and tested; cited from earlier work
[17] = test system: E. coli ATCC25922; design: method as in PMID 33524686; details: cited from earlier work
[18] = target: T3, E. coli gyrase; design: method as in PMID 33524686; details: supercoiling; compound previously prepared and tested; cited from earlier work
[19] = test system: P. aeruginosa ATCC27853; design: method as in PMID 33524686; details: cited from earlier work
[20] = test system: S. aureus (MRSA) ATCC43300; design: method as in PMID 33524686; details: cited from earlier work
[21] = test system: Gram-negative strains; design: method as in PMID 33524686; details: cited from earlier work
[22] = test system: S. aureus ATCC29213; design: method as in PMID 33524686; details: cited from earlier work
[23] = test system: A. baumannii ATCC17978; design: method as in PMID 33524686; details: cited from earlier work
[24] = mean ± SD of three independent experiments, read-out: IC50 E. coli Topo IV

Row | Structure (SMILES) | remaining activity at 100 µM [1] [%] | MIC [2] [µg/mL] | MIC range against Gram-negative strains [3] [µg/mL] | MIC ([4]; first value of cell) [µg/mL] | MIC ([5]; first value of cell) [µg/mL] | MIC ([5]; second value of cell) [µM] | MIC ([6]; first value of cell) [µg/mL] | MIC ([6]; second value of cell) [µM] | MIC ([8]; first value of cell) [µg/mL] | MIC ([8]; second value of cell) [µM] | MIC ([9]; first value of cell) [µg/mL] | MIC ([9]; second value of cell) [µM] | MIC ([10]; first value of cell) [µg/mL] | MIC ([10]; second value of cell) [µM] | MIC ([11]; first value of cell) [µg/mL] | MIC ([11]; second value of cell) [µM] | MIC ([12]; first value of cell) [µg/mL] | MIC ([12]; second value of cell) [µM] | IC50 [13, 24] [µM] | IC50 [14] [µM] | further results
1 | Cc1[nH]c(C(=O)Nc2nc3cc(NCc4ccccc4)c(C(=O)O)cc3s2)c(Cl)c1Cl [Compound D] | 100 | < 0.03 | 4 to 16 | < 0.13 | < 0.03 | < 0.07 | 4 | 8.4 | 8 | 17 | > 64 | > 135 | 8 | 17 | 16 | 34 | < 0.03 | < 0.07 | 0.293 ± 0.155 | < 0.01 | MIC ([4]; second value of cell): < 0.26 µM; MIC ([7]; first value of cell): < 0.03 µg/mL; MIC ([7]; second value of cell): < 0.07 µM
2 | COCCCNc1cc2nc(NC(=O)c3[nH]c(C)c(Cl)c3Cl)sc2cc1C(=O)O [Compound E] | 55 | < 0.03 | 4 to 16 | < 0.06 | < 0.03 | < 0.07 | 4 | 9 | 4 | 9 | > 64 | > 140 | 16 | 35 | 8 | 18 | < 0.03 | < 0.07 | 0.21 | < 0.01 | MIC ([4]; second value of cell): < 0.14 µM; MIC ([7]; first value of cell): < 0.03 µg/mL; MIC ([7]; second value of cell): < 0.07 µM
3 | CC(=O)N(Cc1ccccc1)c1cc2nc(NC(=O)c3[nH]c(C)c(Cl)c3Cl)sc2cc1C(=O)O [Compound C] | – | – | – | – | 8 | 16 | 64 | 124 | > 64 | > 124 | > 64 | > 124 | > 64 | > 124 | > 64 | > 124 | 8 | 16 | – | 0.071 | MIC [3]: > 64 µg/mL; IC50 ([13]; E. coli, read-out: IC50 Topo IV): 4 µM
4 | Cc1[nH]c(C(=O)Nc2nc3cc(O)c(C(=O)O)cc3s2)c(Cl)c1Cl [Compound A] | – | – | – | – | – | – | – | – | – | – | – | – | – | – | – | – | – | – | – | – | MIC K. pneumoniae ATCC10031 ([15]; first value of cell): 8 µg/mL; MIC K. pneumoniae ATCC10031 ([15]; second value of cell): 21 µM; IC50 [16]: 0.095 µM; MIC E. coli ATCC25922 ([17]; first value of cell): > 64 µg/mL; MIC E. coli ATCC25922 ([17]; second value of cell): > 166 µM; IC50 [18]: < 0.01 µM; MIC P. aeruginosa ATCC27853 ([19]; first value of cell): > 64 µg/mL; MIC P. aeruginosa ATCC27853 ([19]; second value of cell): > 166 µM; MIC S. aureus (MRSA) ATCC43300 ([20]; first value of cell): 4 µg/mL; MIC S. aureus (MRSA) ATCC43300 ([20]; second value of cell): 10 µM; MIC against Gram-negative bacterial strains (inactive) [21]: > 64 µg/mL; MIC S. aureus ATCC29213 ([22]; first value of cell): 16 µg/mL; MIC S. aureus ATCC29213 ([22]; second value of cell): 41 µM; MIC A. baumannii ATCC17978 ([23]; first value of cell): > 64 µg/mL; MIC A. baumannii ATCC17978 ([23]; second value of cell): > 166 µM
5 | Cc1[nH]c(C(=O)Nc2nc3c(C)c(F)c(C(=O)O)cc3s2)c(Cl)c1Cl [Compound B] | – | – | – | – | 0.5 | 1.2 | > 64 | > 159 | > 64 | > 159 | > 64 | > 159 | > 64 | > 159 | > 64 | > 159 | 0.25 | 0.6 | 2 ± 0.9 | 0.04 | MIC [3]: > 64 µg/mL
